Assays:
[1] = tested on: FVB/NJ mice; test: Noise-induced hearing loss in FVB/NJ mice (ABR, DPOAE, wave-I, CtBP2 ribbon count); assay type: in vivo, mouse
From the text: Now referring to FIGS. 4A-4F Niclosamide attenuates Cisplatin-induced hearing loss in FVB/NJ mice. Mice: Procedures used with mice were approved by the Institutional Animal Care and Use Committee (IACUC) at the Creighton University. For functional assessments including Cisplatin and noise exposure experiments 5 to 7-week-old FVB/NJ mice obtained from Jackson Laboratory (Bar Harbor, ME, USA) were used, with a mix of males and females across experiments. For the Cisplatin and noise studies, FVB/NJ mice were treated with 10 mg/kg Niclosamide, through intraperitoneal (IP) injection. Niclosamide, was dissolved in 1% DMSO in normal saline (0.9% NaCl solution) and vortexed multiple times before injections. Treatment started 24 hours before the Cisplatin or noise-exposure and continued once daily for 3 more days. Cisplatin was injected IP at 30 mg/kg divided into 2 doses per day. Animals were given 1 mL warm sterile normal saline subcutaneously twice a day before and for 7 days after Cisplatin treatment to prevent dehydration.
Now referring to FIG. 4A, ABR tests were performed 2-3 days before Cisplatin exposure, and 5 days post-Cisplatin exposure. The experimental groups included: Cisplatin and 1% DMSO, Cisplatin and Niclosamide, Niclosamide, only, and age-matched controls receiving normal saline. For the noise experiment, auditory tests were performed 2-3 days prior to noise exposure (paradigm described below), at post-exposure day-1 to monitor temporary threshold shift (TTS) and at post-exposure day-14 to monitor permanent threshold shift (PTS). Experimental groups included: noise-exposure and normal saline, noise-exposure and Niclosamide, Niclosamide-only, and age-matched controls. Following the final auditory function measurements, mice were euthanized, and cochleae were collected for morphological assessment. Based on the results of FVB/NJ ABR/DPOAE threshold variances and power analysis, ten FVB/NJ mice per group (5 of each sex) were used in this study.
Now referring to FIGS. 5B-5F, mice were injected with 10 mg/kg Niclosamide, per IP injection once per day for four consecutive days: one day before noise exposure (8-16 kHz at 105 dB SPL), the day of the noise exposure, and two days after noise exposure. Control animals received vehicle injections on the same schedule.
Now referring to FIG. 5B, Noise-induced ABR threshold shifts were obtained by subtraction of the pre-exposure from the post-exposure thresholds.
Now referring to FIG. 5C, DPOAE amplitudes were measured at f2 frequency ranging from 10 to 80 dB SPL in mice. […] A two-factor ANOVA (group x frequency) was used to compare pre-exposure amplitudes to Day 15 amplitudes.
Now referring to FIG. 5D, mean wave-I amplitudes at 10, 20, 28.3, and 40 kHz were measured at Day 15 post-noise exposure. Amplitudes from the 10-90 dB SPL stimulus intensity were compared between groups in the pre-noise test using a two-factor ANOVA (group x stimulus level), and no group differences were detected. At Day 15, only the 60-90 dB SPL stimulus levels were used because many of the subjects had no responses below 60 dB SPL.
Now referring to FIG. 5E to assess the protection of the ribbon synapses, the cochlear samples were immunostained with CtBP2, one of the most abundant proteins in synaptic ribbon bodies (Kujawa S G, et al. 2006). […] Now referring to FIG. 5F, […] hair cell count of ribbon synapses. […] In the same cochleae, OHCs were also counted. […] The frequency region of 16 kHz was used for CtbP2 ribbon count because this has been shown that ribbons are more abundant in this frequency region.

[2] = tested on: Nrf2; test: nrf2a morpholino knock-down zebrafish exposed to cisplatin and niclosamide; assay type: in vivo; details: non-injected and scrambled control zebrafish; 18.3 nM, cisplatin 300 μM
Method: Additionally to FIGS. 6A-6B, but not shown, 5 dpf zebrafish were incubated for 6 hours with vehicle, niclosamide (2 nM to 1.48 μM) and the nrf2 pathway activator […] (DEM) as a positive control, in order to evaluate the effect of niclosamide on ggcsh, a nrf2 downstream target. Ggcsh was previously validated as a Nrf2 downstream target in zebrafish. (Sheets, 2017). Following incubation, the total RNA was isolated from whole fish and processed to measure the induced expression of nrf2 downstream gene ggcsh. […] Additionally, Nrf2a morpholinos morphlinos were prepared, followed by incubation of the zebrafish morphants with cisplatin and/or niclosamide. Zebrafish eggs were injected with 4.5 ng of scrambled morpholino or nrf2a morpholino (5′-[…] SEQ NO: 1). At 3 dpf non-injected and morphant animals were exposed to vehicle, cisplatin (300 μM), cisplatin+niclosamide 18.3 nM or niclosamide alone for 6 hours. Following 1-hour recovery, animals were fixed and processed for immunohistochemistry. Nrf2a KD was confirmed by analyzing expression of Glutathione S-transferase P1 (gstp1), a downstream target, due to lack of proper antibody to detect Nrf2 protein in zebrafish.

[3] = tested on: SHP77; test: Survival of SHP77 cells with or without Cisplatin and Niclosamide; assay type: cell-based; details: 10 nM
Method: Now referring to FIG. 8, In vitro model of […] incubated with or without Cisplatin and 10 nM of Niclosamide. Cells were maintained in culture with the aid of Matrigel as previously described in Kelley and Driver, Curr. Protoc. Neurosci. Ch.(4); Unit(4); 34.1-10 (2010). After cells had been in culture for 1 d, growth medium DMEM (12430-054; GIB CO Life Technologies, with 1% FBS [16000-044; GIB CO Life Technologies] and 50 μg/ml ampicillin) with or without test compounds may be added for preincubation for 1 hr. at 37° C. in 5% Co2, and may be followed by incubation with 50 μM Cisplatin (479306; Sigma-Aldrich) with or without the test compound in growth medium for 24 hr. at 37° C. A Cisplatin concentration of 50 μM may be used for the explant assay due to its consistent showing of decreases outer hair cells by about −40% in the mouse cochlea after 24 hours. Cochlea may be fixed in 4% PFA and stained for actin with Alex Fluor 568 phalloidin to determine the viability of the HCs. Cochlea may also be stained by DAPI, FM1-43 dye uptake, and immunohistochemical staining for known HC markers (including parvalbumin and myosin 7a. Cochlea may be imaged by confocal microscopy. Two 160-μm regions from middle turns may be photographed, and the number of intact HCs can be counted.

[4] = following 2,000 mg oral use; cited from earlier work

O=C(Nc1ccc([N+](=O)[O-])cc1Cl)c1cc(Cl)ccc1O [Niclosamide, 5-chloro-N-(2-chloro-4-nitrophenyl)-2-hydroxy-benzamide]
noise-induced ABR threshold shifts versus noise exposed group ([1]; 8 kHz to 63 kHz, Day 14, 10 mg/kg IP): lower threshold shifts
synaptic ribbon (CtBP2) survival versus saline-noise group ([1]; 16 kHz): more synaptic ribbon survival
proportion of surviving OHCs versus saline-noise animals ([1]; 32 kHz): similar
wave-I amplitudes versus noise-exposed group ([1]; 80 and 90 dB SPL, Day 15): higher amplitudes
wave-I amplitude (cochlear nerve activity) versus age-matched controls ([1]; Day 15): comparable to aged matched controls
DPOAE amplitudes versus noise-saline group ([1]; day-15 post-noise exposure): significantly higher
hair cell number after cotreatment with cisplatin [2]: significantly higher hair cell number
effect on Cisplatin-tumor killing activity [3]: did not affect Cisplatin-tumor killing activity
Cmax [4]: 18 µM
